Experiments:
Format in all cases: in vivo
[1] = test system: Alopecurus myosuroides (ALOMY); assay: Test 1B glasshouse assay, post-emergence herbicidal activity against grassy weeds; details: 14 DAA
Procedure, shortened: (§1)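 Post-emergence spray, 14-day-old plants, glasshouse 22/16 °C day/night, 16 h light, 65% humidity. Test herbicide typically 60, 90 or 120 g/ha; cloquintocet-mexyl safener 50 g/ha optional at 60, included at 90/120. Scored visually 14 DAA, 0–100% damage, 2 reps averaged.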

Avena fatua (AVEFA) = assay: as above; details: 14 DAA
Procedure, shortened: as §1

[2] = test system: Lolium multiflorum (LOLMU); assay: as above; details: 14 DAA
Procedure, shortened: as §1

Poa annua (POAAN) = assay: as above; details: 14 DAA
Procedure, shortened: as §1

Setaria viridis (SETVI) = assay: as above; details: 14 DAA
Procedure, shortened: as §1

[3] = test system: Spring Barley “Harrington”; assay: Test 1B glasshouse assay, post-emergence herbicidal activity against cereal crops; details: 14 DAA
Procedure, shortened: (§2)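 Technical compound in IF50 with acetone, diluted into 0.5% v/v Adigor, sprayed post-emergence on 14-day glasshouse plants (22/16 °C, 16 h light, 65% humidity), typically at 60, 90 or 120 g/ha, with or without 50 g/ha cloquintocet-mexyl safener. Phytotoxicity scored visually 14 DAA (0–100%), mean of two replicates.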

Spring Wheat “Teal” = assay: as above; details: 14 DAA
Procedure, shortened: as §2

Winter Barley “Suzuka” = assay: as above; details: 14 DAA
Procedure, shortened: as §2

Winter Wheat “Hereward” = assay: as above; details: 14 DAA
Procedure, shortened: as §2

[4] = test system: grassy monocotyledonous weeds; assay: Test 1B glasshouse assay, post-emergence, comparison of separated enantiomers, weeds overall; details: chiral-column-separated enantiomers, A98 vs A99 and A100 vs A101, Biological Example 1B
Protocol: Biological Example 1B tests the herbicidal activity of“technical” compounds (i.e. compounds not previously formulated before the test), as the herbicides under test.
An “instant formulation”, known as the “IF50”, containing 50 g/liter (i.e. 5% w/v) of the “technical” (i.e. unformulated) active ingredient (i.e. the herbicide under test), is prepared by dissolving the active ingredient in a mixture of organic solvents and emulsifier, details of which are provided in the Table below. […]
The test plants are then grown on under controlled conditions in the glasshouse (at 22/16° C., day/night; 16 hours light; 65% humidity) and are watered twice daily. 14 days after application of the test herbicide, the test is evaluated visually for percentage phytotoxicity to the plant (where 100%=total damage to plant; 0%=no damage to plant). […]
Herbicidal activity (phytotoxicity) is evaluated visually, and an assessed percentage phytotoxicity score is given for each herbicidal application on each plant species (with 100%=total damage to plant; 0%=no damage to plant; the assessment is recorded in increments of 1%). […]

[5] = 30 g/ha herbicide, 50 g/ha cloquintocet-mexyl
[6] = 45 g/ha herbicide, 50 g/ha cloquintocet-mexyl
[7] = 60 g/ha herbicide, 0 g/ha cloquintocet-mexyl
[8] = 60 g/ha herbicide, 50 g/ha cloquintocet-mexyl

## CCc1cc(-n2cc(Cl)cn2)cc(C)c1C1C(=O)C[C@@H](CCNC(=O)c2ccccn2)C1=O (stereo partly shown) [Compound A100]
[1]; [5]
  Post-emergence herbicidal activity, percentage phytotoxicity, ALOMY: 55%
[1]; [6]
  Post-emergence herbicidal activity, percentage phytotoxicity, ALOMY: 75%
[1]; [7]
  Post-emergence herbicidal activity, percentage phytotoxicity, ALOMY: 83%
[1]; [8]
  Post-emergence herbicidal activity, percentage phytotoxicity, ALOMY: 78%
Avena fatua (AVEFA); [5]
  Post-emergence herbicidal activity, percentage phytotoxicity, AVEFA: 100%
Avena fatua (AVEFA); [6]
  Post-emergence herbicidal activity, percentage phytotoxicity, AVEFA: 100%
Avena fatua (AVEFA); [7]
  Post-emergence herbicidal activity, percentage phytotoxicity, AVEFA: 100%
Avena fatua (AVEFA); [8]
  Post-emergence herbicidal activity, percentage phytotoxicity, AVEFA: 100%
[2]; [5]
  Post-emergence herbicidal activity, percentage phytotoxicity, LOLMU: 100%
[2]; [6]
  Post-emergence herbicidal activity, percentage phytotoxicity, LOLMU: 100%
[2]; [7]
  Post-emergence herbicidal activity, percentage phytotoxicity, LOLMU: 100%
[2]; [8]
  Post-emergence herbicidal activity, percentage phytotoxicity, LOLMU: 100%
Poa annua (POAAN); [5]
  Post-emergence herbicidal activity, percentage phytotoxicity, POAAN: 73%
Poa annua (POAAN); [6]
  Post-emergence herbicidal activity, percentage phytotoxicity, POAAN: 78%
Poa annua (POAAN); [7]
  Post-emergence herbicidal activity, percentage phytotoxicity, POAAN: 80%
Poa annua (POAAN); [8]
  Post-emergence herbicidal activity, percentage phytotoxicity, POAAN: 78%
Setaria viridis (SETVI); [5]
  Post-emergence herbicidal activity, percentage phytotoxicity, SETVI: 95%
Setaria viridis (SETVI); [6]
  Post-emergence herbicidal activity, percentage phytotoxicity, SETVI: 99%
Setaria viridis (SETVI); [7]
  Post-emergence herbicidal activity, percentage phytotoxicity, SETVI: 99%
Setaria viridis (SETVI); [8]
  Post-emergence herbicidal activity, percentage phytotoxicity, SETVI: 99%
[3]; [5]
  Post-emergence herbicidal activity against cereal crops, percentage phytotoxicity, Spring Barley “Harrington”: 13%
[3]; [6]
  Post-emergence herbicidal activity against cereal crops, percentage phytotoxicity, Spring Barley “Harrington”: 18%
[3]; [7]
  Post-emergence herbicidal activity against cereal crops, percentage phytotoxicity, Spring Barley “Harrington”: 83%
[3]; [8]
  Post-emergence herbicidal activity against cereal crops, percentage phytotoxicity, Spring Barley “Harrington”: 28%
Spring Wheat “Teal”; [5]
  Post-emergence herbicidal activity against cereal crops, percentage phytotoxicity, Spring Wheat “Teal”: 20%
Spring Wheat “Teal”; [6]
  Post-emergence herbicidal activity against cereal crops, percentage phytotoxicity, Spring Wheat “Teal”: 30%
Spring Wheat “Teal”; [7]
  Post-emergence herbicidal activity against cereal crops, percentage phytotoxicity, Spring Wheat “Teal”: 65%
Spring Wheat “Teal”; [8]
  Post-emergence herbicidal activity against cereal crops, percentage phytotoxicity, Spring Wheat “Teal”: 45%
Winter Barley “Suzuka”; [5]
  Post-emergence herbicidal activity against cereal crops, percentage phytotoxicity, Winter Barley “Suzuka”: 10%
Winter Barley “Suzuka”; [6]
  Post-emergence herbicidal activity against cereal crops, percentage phytotoxicity, Winter Barley “Suzuka”: 30%
Winter Barley “Suzuka”; [7]
  Post-emergence herbicidal activity against cereal crops, percentage phytotoxicity, Winter Barley “Suzuka”: 93%
Winter Barley “Suzuka”; [8]
  Post-emergence herbicidal activity against cereal crops, percentage phytotoxicity, Winter Barley “Suzuka”: 53%
Winter Wheat “Hereward”; [5]
  Post-emergence herbicidal activity against cereal crops, percentage phytotoxicity, Winter Wheat “Hereward”: 15%
Winter Wheat “Hereward”; [6]
  Post-emergence herbicidal activity against cereal crops, percentage phytotoxicity, Winter Wheat “Hereward”: 30%
Winter Wheat “Hereward”; [7]
  Post-emergence herbicidal activity against cereal crops, percentage phytotoxicity, Winter Wheat “Hereward”: 60%
Winter Wheat “Hereward”; [8]
  Post-emergence herbicidal activity against cereal crops, percentage phytotoxicity, Winter Wheat “Hereward”: 40%
[4]
  herbicidal activity against grassy monocotyledonous weeds compared with the compound of opposite stereochemistry: more potent herbicidal activity
